Source: ChEMBL document CHEMBL5108020, “Design and synthesis of novel benzimidazole derivatives as potential Pseudomonas aeruginosa anti-biofilm agents inhibiting LasR: Evidence from comprehensive molecular dynamics simulation and in vitro investigation” (Eur J Med Chem, 2022)
≈ marks a conversion by molar mass, not a printed value. Calls of active or inactive are those of the source. The rule behind the calls is not given here.

Legend:
Pseudomonas aeruginosa [1] = assay: Antibacterial activity against Pseudomonas aeruginosa ATCC 27853 assessed as zone of growth inhibition incubated for 24 hrs by agar diffusion method; type: functional
Pseudomonas aeruginosa [2] = assay: Antibacterial activity against Pseudomonas aeruginosa assessed as inhibition of bacterial growth incubated for 24 hrs by CLSI broth microdilution method; type: functional; conditions: for MIC: Pseudomonas aeruginosa
Klebsiella pneumoniae = assay: Antibacterial activity against Klebsiella pneumoniae ATCC 700603 assessed as inhibition of bacterial growth incubated for 24 hrs by agar diffusion method; type: functional, organism-based
Escherichia coli = assay: Antibacterial activity against Escherichia coli ATCC 25922 assessed as inhibition of bacterial growth incubated for 24 hrs by agar diffusion method; type: functional, organism-based
[3] = Inhibition of quorum sensing system in Pseudomonas aeruginosa assessed as inhibition of rhamnolipid production at sub-MIC by spectrophotometric method
[4] = Inhibition of quorum sensing system in Pseudomonas aeruginosa assessed as inhibition of pyocyanin production at sub-MIC by absorbance based analysis
[5] = Inhibition of quorum sensing system in Pseudomonas aeruginosa assessed as inhibition of biofilm production at sub-MIC incubated for 24 hrs by crystal violet staining based analysis
[6] = Cytotoxicity against human HDFa cells assessed as reduction in cell viability incubated for 24 hrs by MTT assay; type: toxicity, cell-based
[7] = Selectivity index, ratio of IC50 for human HDFa cells to MIC for antibacterial activity against Pseudomonas aeruginosa; type: toxicity; conditions: read-out: Selectivity Index
Bacillus subtilis = assay: Antibacterial activity against Bacillus subtilis ATCC 6633 assessed as inhibition of bacterial growth incubated for 24 hrs by agar diffusion method; type: functional, organism-based
[8] = Inhibition of quorum sensing system in Pseudomonas aeruginosa assessed as downregulation of rhlR gene expression at sub-MIC by fluorescence real time PCR analysis
[9] = Inhibition of quorum sensing system in Pseudomonas aeruginosa assessed as downregulation of lasR gene expression at sub-MIC by fluorescence real time PCR analysis
Candida albicans = assay: Antifungal activity against Candida albicans ATCC 60193 assessed as inhibition of fungal growth incubated for 48 hrs by agar diffusion method; type: functional, organism-based
Staphylococcus aureus = assay: Antibacterial activity against Staphylococcus aureus ATCC 43300 assessed as inhibition of bacterial growth incubated for 24 hrs by agar diffusion method; type: functional, organism-based

MIC (Pseudomonas aeruginosa [2]) | inhibition [3] | inhibition [4] | inhibition [5] | inhibition [8] | inhibition [9] | Structure (SMILES) | inhibition zone (IZ) (Pseudomonas aeruginosa [1]) | Activity (Klebsiella pneumoniae) | Activity (Escherichia coli) | SubMIC (Pseudomonas aeruginosa [2]) | IC50 at 24 h [6] | selectivity ratio [7] | Activity (Bacillus subtilis) | Activity (Candida albicans) | Activity (Staphylococcus aureus)
93.9 µM (≈ 28.1 µg/mL) | – | – | – | – | – | C[C@@H](O)[C@H]1C(=O)N2C(C(=O)O)=C(SCCNC=N)C[C@H]12 [IMIPENEM ANHYDROUS] | 19 mm | – | – | – | – | – | – | – | –
68.2 µM (≈ 28.1 µg/mL) | 3.7% | 13.4% | 31% | – | – | O=C(COc1ccc(-c2nc3cc(Cl)ccc3[nH]2)cc1)Nc1ccc(Cl)cc1 | 17 mm | Active | Active | 16.9 µM | – | – | – | – | –
– | – | – | – | – | – | C/C(=C\C(=O)OCCCCCCCCC(=O)O)C[C@@H]1OC[C@H](C[C@@H]2O[C@H]2[C@@H](C)[C@H](C)O)[C@@H](O)[C@H]1O [MUPIROCIN] | – | – | – | – | 161 µg/mL (≈ 322 µM) | – | – | – | –
66.5 µM (≈ 28.1 µg/mL) | 20.4% | 35.8% | 51.8% | – | – | O=C(COc1ccc(-c2nc3cc(Cl)ccc3[nH]2)cc1)Nc1ccccc1[N+](=O)[O-] | 16 mm | Active | – | 16.5 µM | – | – | – | – | –
157 µM (≈ 56.2 µg/mL) | 51.8% | 68% | 68.9% | 16.3% | 26% | Cc1ccccc1NC(=O)COc1ccc(-c2nc3ccccc3[nH]2)cc1 | 16 mm | – | – | 39.1 µM | 338 µg/mL (≈ 946 µM) | 6.01 | Active | – | –
149 µM (≈ 56.2 µg/mL) | 34.4% | 58% | 63.1% | – | – | O=C(COc1ccc(-c2nc3ccccc3[nH]2)cc1)Nc1ccc(Cl)cc1 | 17 mm | Active | – | 37 µM | – | – | – | Active | –
34.3 µM (≈ 14 µg/mL) | 13.8% | 28.9% | 39.2% | – | – | COc1ccc(NC(=O)COc2ccc(-c3nc4cc(Cl)ccc4[nH]3)cc2)cc1 | 17 mm | – | – | 8.5 µM | – | – | Active | Active | –
145 µM (≈ 56.2 µg/mL) | 44.6% | 60.3% | 63.8% | – | – | O=C(COc1ccc(-c2nc3ccccc3[nH]2)cc1)Nc1ccccc1[N+](=O)[O-] | 15 mm | – | – | 36 µM | – | – | Active | – | –
35.7 µM (≈ 14 µg/mL) | 29.6% | 38.2% | 55.7% | – | – | Cc1ccc2[nH]c(-c3ccc(OCC(=O)Nc4ccc(Cl)cc4)cc3)nc2c1 | 19 mm | – | – | 8.9 µM | – | – | Active | – | –
151 µM (≈ 56.2 µg/mL) | 46.4% | 61.8% | 67.1% | – | – | COc1ccc(NC(=O)COc2ccc(-c3nc4ccccc4[nH]3)cc2)cc1 | 18 mm | – | – | 37.4 µM | – | – | – | – | Active
164 µM (≈ 56.2 µg/mL) | 28.2% | 36.7% | 51.5% | – | – | O=C(COc1ccc(-c2nc3ccccc3[nH]2)cc1)Nc1ccccc1 | 19 mm | – | – | 40.7 µM | – | – | – | – | –
57.7 µM (≈ 21.4 µg/mL) | 37.8% | 60% | 64.9% | – | – | Cc1ccc(NC(=O)COc2ccc(-c3nc4cc(C)ccc4[nH]3)cc2)cc1 | 16 mm | – | Active | 18.8 µM | – | – | – | – | –
57.7 µM (≈ 21.4 µg/mL) | 13.6% | 31% | 39.5% | – | – | Cc1ccc2[nH]c(-c3ccc(OCC(=O)Nc4ccccc4C)cc3)nc2c1 | 14 mm | – | – | 18.8 µM | – | – | – | Active | –
35.3 µM (≈ 14 µg/mL) | 18.1% | 32.8% | 45% | – | – | O=C(COc1ccc(-c2nc3cc(Cl)ccc3[nH]2)cc1)Nc1ccc(F)cc1 | 19 mm | Active | – | 8.8 µM | – | – | – | Active | –
71.7 µM (≈ 28.1 µg/mL) | 3% | 6.5% | 29% | – | – | Cc1ccccc1NC(=O)COc1ccc(-c2nc3cc(Cl)ccc3[nH]2)cc1 | 16 mm | Active | – | 17.8 µM | – | – | – | – | –
203 µM (≈ 56.3 µg/mL) | 49.6% | 63.6% | 67.3% | – | – | c1ccc2[nH]c(-c3ccc(N4CCCCC4)cc3)nc2c1 | 19 mm | – | – | 50.4 µM | – | – | – | – | Active

MIC (Pseudomonas aeruginosa [2]) | inhibition [3] | inhibition [4] | inhibition [5] | inhibition [8] | inhibition [9] | Structure (SMILES) | inhibition zone (IZ) (Pseudomonas aeruginosa [1]) | Activity (Klebsiella pneumoniae) | Activity (Escherichia coli) | SubMIC (Pseudomonas aeruginosa [2]) | IC50 at 24 h [6] | selectivity ratio [7] | Activity (Bacillus subtilis) | Activity (Candida albicans) | Activity (Staphylococcus aureus)
109 µM (≈ 28.3 µg/mL) | 20.1% | 34% | 46.1% | – | – | c1ccc2[nH]c(-c3ccc(-n4ccnc4)cc3)nc2c1 | 18 mm | Active | – | 26.8 µM | – | – | – | – | –
66.5 µM (≈ 28.1 µg/mL) | 7% | 14.8% | 32.5% | – | – | O=C(COc1ccc(-c2nc3cc(Cl)ccc3[nH]2)cc1)Nc1ccc([N+](=O)[O-])cc1 | 16 mm | Active | – | 16.5 µM | – | – | – | – | –
78.7 µM (≈ 28.1 µg/mL) | 33% | 54.3% | 56.3% | – | – | Cc1ccc2[nH]c(-c3ccc(OCC(=O)Nc4ccccc4)cc3)nc2c1 | 15 mm | – | – | 19.5 µM | – | – | Active | – | –
74.4 µM (≈ 28.1 µg/mL) | 20.7% | 35.5% | 53.1% | – | – | O=C(COc1ccc(-c2nc3cc(Cl)ccc3[nH]2)cc1)Nc1ccccc1 | 15 mm | – | – | 18.5 µM | 102 µg/mL (≈ 270 µM) | 3.63 | – | – | –
157 µM (≈ 56.2 µg/mL) | 25.1% | 36.4% | 52.4% | – | – | Cc1ccc(NC(=O)COc2ccc(-c3nc4ccccc4[nH]3)cc2)cc1 | 13 mm | – | – | 39.1 µM | – | – | – | – | –
201 µM (≈ 56.2 µg/mL) | 35.7% | 55.2% | 60.5% | – | – | c1ccc2[nH]c(-c3ccc(N4CCOCC4)cc3)nc2c1 | 18 mm | Active | – | 50.1 µM | – | – | – | – | –
156 µM (≈ 56.2 µg/mL) | 27.7% | 37% | 51.8% | – | – | O=C(COc1ccc(-c2nc3ccccc3[nH]2)cc1)Nc1ccc(F)cc1 | 17 mm | – | – | 38.7 µM | – | – | – | – | –
85.4 µM (≈ 64 µg/mL) | 55.2% | 65% | 52.5% | 41.5% | 40.8% | CC[C@H]1OC(=O)[C@H](C)[C@@H](O[C@H]2C[C@@](C)(OC)[C@@H](O)[C@H](C)O2)[C@H](C)[C@@H](O[C@@H]2O[C@H](C)C[C@H](N(C)C)[C@H]2O)[C@](C)(O)C[C@@H](C)CN(C)[C@H](C)[C@@H](O)[C@]1(C)O [AZITHROMYCIN] | – | – | – | 20.1 µM | – | – | – | – | –
145 µM (≈ 56.2 µg/mL) | 35.2% | 57.6% | 63.6% | – | – | O=C(COc1ccc(-c2nc3ccccc3[nH]2)cc1)Nc1ccc([N+](=O)[O-])cc1 | 17 mm | – | – | 36 µM | – | – | – | – | –
69.9 µM (≈ 28.1 µg/mL) | 15% | 33.7% | 44.1% | – | – | Cc1ccc2[nH]c(-c3ccc(OCC(=O)Nc4ccc([N+](=O)[O-])cc4)cc3)nc2c1 | 15 mm | – | – | 17.4 µM | – | – | Active | – | –
35.7 µM (≈ 14 µg/mL) | 11.4% | 24.5% | 31.3% | – | – | Cc1ccc(NC(=O)COc2ccc(-c3nc4cc(Cl)ccc4[nH]3)cc2)cc1 | 18 mm | Active | – | 8.9 µM | – | – | – | – | –
36.1 µM (≈ 14 µg/mL) | 12.6% | 29% | 36.7% | – | – | COc1ccc(NC(=O)COc2ccc(-c3nc4cc(C)ccc4[nH]3)cc2)cc1 | 15 mm | – | Active | 9 µM | – | – | Active | – | –
193 µM (≈ 56.4 µg/mL) | 54% | 68.7% | 71.7% | – | 61.7% | CN1CCN(c2ccc(-c3nc4ccccc4[nH]3)cc2)CC1 | 20 mm | Active | Active | 48 µM | 217 µg/mL (≈ 742 µM) | 3.86 | – | Active | Active
37.2 µM (≈ 14 µg/mL) | 35.2% | 55.8% | 59.6% | – | – | Cc1ccc2[nH]c(-c3ccc(OCC(=O)Nc4ccc(F)cc4)cc3)nc2c1 | 19 mm | – | – | 9.3 µM | – | – | Active | – | –
69.9 µM (≈ 28.1 µg/mL) | 42.3% | 60% | 64.9% | – | – | Cc1ccc2[nH]c(-c3ccc(OCC(=O)Nc4ccccc4[N+](=O)[O-])cc3)nc2c1 | 14 mm | – | – | 17.4 µM | 411 µg/mL (≈ 1020 µM) | 14.6 | Active | – | –
